In paper PMC6309945 (The FEBS journal, 2018):
Non-standard residues stand in square brackets, D forms with d. Residues, ends and D or L forms follow the SMILES beside them. *: point of attachment. Sta = CC(C)C[C@H](N)[C@@H](O)CC(=O)O; Isovaleryl = CC(C)CC(=O)*

What was measured:
[1] = test system: human foreskin fibroblasts (HFF); assay: MTT cytotoxicity assay; format: cell-based
[2] = biological target: plasmepsin II (PMII) (Plasmodium falciparum, UniProt P46925); assay: Fluorogenic substrate inhibition assay of mature soluble recombinant PMII; format: biochemical
plasmepsin II (PMII), sequence (P46925 125-453): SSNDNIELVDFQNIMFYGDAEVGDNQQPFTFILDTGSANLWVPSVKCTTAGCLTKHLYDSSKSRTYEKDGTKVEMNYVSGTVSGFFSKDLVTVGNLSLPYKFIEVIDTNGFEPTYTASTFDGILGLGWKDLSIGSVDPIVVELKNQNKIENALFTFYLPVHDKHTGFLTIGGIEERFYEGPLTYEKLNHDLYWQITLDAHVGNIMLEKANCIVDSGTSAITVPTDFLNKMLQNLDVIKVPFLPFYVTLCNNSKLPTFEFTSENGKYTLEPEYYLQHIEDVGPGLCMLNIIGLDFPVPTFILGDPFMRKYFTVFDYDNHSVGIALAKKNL

Row | SMILES | Cytotoxicity (cell viability, MTT) ([1]; highest concentration tested 25 µM, continuous exposure for 2 consecutive days) | Morphology of cells ([1]; light microscopy, compared to cisplatin-treated cells) | Ki [2] [nM]
1 | Cc1cc(N(C)CCN(C)C)cc(C)c1OCC(=O)N[C@@H](Cc1ccccc1)[C@H](O)C(=O)N1CSC(C)(C)[C@H]1C(=O)N[C@H]1c2ccccc2C[C@H]1O [KNI-10743] | no significant cytotoxicity | remains intact | 
2 | CC(C)CC(=O)N[C@H](C(=O)N[C@H](C(=O)N[C@@H](CC(C)C)[C@@H](O)CC(=O)N[C@@H](C)C(=O)N[C@@H](CC(C)C)[C@@H](O)CC(=O)O)C(C)C)C(C)C [Pepstatin A] (Isovaleryl-VV[Sta]A[Sta]-OH) |  |  | 0.07
